Test results from patent US10487115B2, “Proteinaceous compounds and uses therefor” (UNIVERSITY OF CANBERRA, priority 2016, dated 2019).
* marks the point of attachment. Myristoyl = CCCCCCCCCCCCCC(=O)*

What was measured:
PKC-θ = biological target: T1, PKC-θ (Homo sapiens, UniProt Q04759); experiment: Nuclear translocation of PKC-θ in PMA-stimulated MCF7 cells (immunofluorescence, Fn/c); assay type: cell-based
T1 construct: endogenous in cells; host or cells: MCF7
Description: (§1) MCF7 cells were pre-seeded overnight on sterile coverslips in 12 well plates with 1 mL of completed Dulbecco's modified eagle medium (DMEM) before incubating with 50 μM of importinib4759 (synthesized in accordance with Example 1) and importinib4759_O1 (synthesized in accordance with Example 1) for 24 hr. Test peptides were not removed when MCF7 cells were stimulated with 0.65 ng/mL of phorbol 12-myristate 13-acetate (PMA) for 60 hr. Diethylpyrocarbonate (DEPC)-water was used for control (test peptides were dissolved in sterile DEPC-water). After wash with Dulbecco's phosphate buffered saline (DPBS) twice, samples on coverslips were fixed with 4% paraformaldehyde for 10 minutes and stained with PKC-θ (Cat. SC-212), PKC-θ-Phosphor-T538, PKC-β2, PKC-α, Importin α, or Importin 8 primary Antibody respectively and conjugated Alexa-488 secondary Antibody. Cell nucleus was stained with anti-fade 2-(4-amidinophenyl)-6-indolecarbamidine dihydrochloride (DAPI). When samples were dried overnight, Nikon fluorescence microscopy was used to take photos. ImageJ software was used for densimetric analysis. Fn/c was calculated using the formula: Fn/c=(nuclear density-background density)/(cytoplasmic density-background density).

PKC-α = biological target: T2, PKC-α (Homo sapiens, UniProt P17252); experiment: Localization of PKC-α in PMA-stimulated MCF7 cells (immunofluorescence, Fn/c); assay type: cell-based; conditions: 50 μM, p=not significant relative to control
T2 construct: endogenous in cells; host or cells: MCF7
Description: as §1

PKC-β2 = biological target: T3, PKC-β2 (Homo sapiens, UniProt P05771); experiment: Localization of PKC-β2 in PMA-stimulated MCF7 cells (immunofluorescence, Fn/c); assay type: cell-based; conditions: 50 μM, p=not significant relative to control
T3 construct: endogenous in cells; host or cells: MCF7
T3 sequence (P05771 1-673 isoform P05771-2): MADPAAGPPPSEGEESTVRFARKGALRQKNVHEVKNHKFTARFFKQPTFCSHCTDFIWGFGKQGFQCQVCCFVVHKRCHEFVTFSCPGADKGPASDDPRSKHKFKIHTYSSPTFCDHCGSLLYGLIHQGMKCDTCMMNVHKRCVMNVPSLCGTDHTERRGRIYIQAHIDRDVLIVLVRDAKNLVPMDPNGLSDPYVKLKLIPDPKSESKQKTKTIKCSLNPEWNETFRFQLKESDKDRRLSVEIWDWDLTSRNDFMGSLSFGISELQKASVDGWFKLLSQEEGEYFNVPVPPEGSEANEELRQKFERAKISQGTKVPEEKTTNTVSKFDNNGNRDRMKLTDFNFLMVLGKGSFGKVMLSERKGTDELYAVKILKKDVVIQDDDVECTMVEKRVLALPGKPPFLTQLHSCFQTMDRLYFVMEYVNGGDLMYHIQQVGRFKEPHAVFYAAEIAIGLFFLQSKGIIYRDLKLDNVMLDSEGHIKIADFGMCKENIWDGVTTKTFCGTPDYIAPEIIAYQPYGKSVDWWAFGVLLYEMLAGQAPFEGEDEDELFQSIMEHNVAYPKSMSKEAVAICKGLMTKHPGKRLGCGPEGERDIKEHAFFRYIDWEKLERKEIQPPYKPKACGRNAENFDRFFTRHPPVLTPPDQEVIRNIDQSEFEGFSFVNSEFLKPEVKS
Description: as §1

Importin α = experiment: Localization of Importin α in PMA-stimulated MCF7 cells (immunofluorescence, Fn/c); assay type: cell-based, human; conditions: 50 μM, p=not significant relative to control
Description: as §1

Importin 8 = biological target: T4, Importin 8 (Homo sapiens, UniProt O15397); experiment: Localization of Importin 8 in PMA-stimulated MCF7 cells (immunofluorescence, Fn/c); assay type: cell-based; conditions: 50 μM, p=not significant relative to control
T4 construct: endogenous in cells; host or cells: MCF7
T4 sequence (O15397 whole entry): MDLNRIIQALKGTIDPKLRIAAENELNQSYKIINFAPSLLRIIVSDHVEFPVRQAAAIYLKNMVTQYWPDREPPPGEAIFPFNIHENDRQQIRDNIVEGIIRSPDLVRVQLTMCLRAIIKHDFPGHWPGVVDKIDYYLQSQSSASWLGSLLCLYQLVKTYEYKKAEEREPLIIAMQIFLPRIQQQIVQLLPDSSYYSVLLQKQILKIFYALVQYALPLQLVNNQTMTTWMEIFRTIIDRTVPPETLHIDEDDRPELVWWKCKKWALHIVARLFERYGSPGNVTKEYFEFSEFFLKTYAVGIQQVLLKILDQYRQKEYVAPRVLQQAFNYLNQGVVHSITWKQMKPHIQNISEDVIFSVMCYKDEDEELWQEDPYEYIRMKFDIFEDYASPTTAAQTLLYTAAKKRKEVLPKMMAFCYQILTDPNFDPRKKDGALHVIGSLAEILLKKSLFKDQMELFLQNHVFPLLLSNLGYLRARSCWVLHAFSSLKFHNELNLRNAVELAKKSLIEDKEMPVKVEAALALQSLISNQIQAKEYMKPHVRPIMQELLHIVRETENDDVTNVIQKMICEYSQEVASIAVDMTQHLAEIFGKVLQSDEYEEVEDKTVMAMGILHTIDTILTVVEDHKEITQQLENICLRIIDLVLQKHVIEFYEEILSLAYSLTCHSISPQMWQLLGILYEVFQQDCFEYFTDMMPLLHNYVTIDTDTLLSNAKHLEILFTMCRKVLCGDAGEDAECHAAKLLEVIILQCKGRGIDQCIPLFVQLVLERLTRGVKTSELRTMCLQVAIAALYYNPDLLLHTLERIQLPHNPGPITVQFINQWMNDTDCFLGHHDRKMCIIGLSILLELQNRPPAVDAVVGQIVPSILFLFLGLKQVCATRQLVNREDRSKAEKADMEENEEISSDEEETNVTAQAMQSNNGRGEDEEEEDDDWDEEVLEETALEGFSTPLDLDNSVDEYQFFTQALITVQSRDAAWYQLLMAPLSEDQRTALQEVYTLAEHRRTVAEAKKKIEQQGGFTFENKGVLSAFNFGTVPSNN
Description: as §1

MCF7 cells = experiment: CD44hiCD24lo cancer stem cell formation in MCF-IM model (FACS); assay type: cell-based, human; conditions: importinib4759 5004 and 100 μM, importinib4759_O1 2504 and 50 μM, 24 hr before PMA 60 hr, p=0.0079 relative to control
Description: (§2) 5×10^4 MCF7 cells were seeded with 1 mL of complete DMEM in 12 well plates overnight, then importinib4759 (5004 and 100 μM; synthesized in accordance with Example 1) or importinib4759_O1 (2504 and 50 μM; synthesized in accordance with Example 1) were used to treat cells for 24 hr before stimulation with PMA for 60 hr. Samples were harvested by trypsinization followed by washing with DPBS containing 2% heat inactivated foetal bovine serum (HI-FBS). FACS staining were performed using anti-human CD44-APC, anti-human CD24-PE, Hoechst, and anti-human EpCAM antibody cocktails. Data was collected from BD FACSLSR-II flow cytometer. Treestar FlowJo was used for data analysis.

MDA-MB-231 cells = experiment: Live cell population after treatment, MDA-MB-231 cells (FACS); assay type: cell-based, human; conditions: 48 hr treatment, p<0.0001 relative to control
Description: as §2, with “5×10^4 MDA-MB-231” for “5×10^4 MCF7”, “for 48” for “for 24”, “before samples” for “before stimulation with PMA for 60 hr. Samples”, “2% HI-FBS.” for “2% heat inactivated foetal bovine serum (HI-FBS).”, “staining was” for “staining were”

MCF7 epithelial cells = experiment: Live cell population after treatment, MCF7 cells (FACS); assay type: cell-based, human; conditions: same concentration of inhibitor as in MDA-MB-231 cells
Description: as §2
as §2, with “5×10^4 MDA-MB-231” for “5×10^4 MCF7”, “for 48” for “for 24”, “before samples” for “before stimulation with PMA for 60 hr. Samples”, “2% HI-FBS.” for “2% heat inactivated foetal bovine serum (HI-FBS).”, “staining was” for “staining were”

NF-κB p65 = experiment: Nuclear expression of NF-κB p65 in PMA-stimulated MCF7 cells (immunofluorescence, Fn/c); assay type: cell-based, human; conditions: 50 μM 24 hr, PMA 60 hr, p=0.0033
Description: (§3) MCF7 cells were pre-seeded overnight on sterile coverslips in 12 well plates with 1 mL of completed DMEM before inhibiting with 50 μM of importinib4759_O1 (synthesized in accordance with Example 1) for 24 hr. Importinib4759_O1 was removed when MCF7 cells were stimulated with 0.65 ng/mL of PMA for 60 hr. DEPC-water was used as the control (importinib4759_O1 was dissolved in sterile DEPC-water). After washing with DPBS twice, samples on coverslips were fixed with 4% paraformaldehyde for 10 minutes and stained with p65, Rb, or p53 primary Antibody and conjugated Alexa-488 secondary Antibody. Cell nucleus was stained with anti-fade DAPI. When samples were dried overnight, Nikon fluorescence microscopy was used to take photos. ImageJ software was used for densimetric analysis. Fn/c was calculated using the formula: Fn/c=(nuclear density-background density)/(cytoplasmic density-background density).

p53 = experiment: Nuclear expression of p53 in PMA-stimulated MCF7 cells (immunofluorescence, Fn/c); assay type: cell-based, human; conditions: 50 μM 24 hr, PMA 60 hr, p=0.0009
Description: as §3

Rb = experiment: Expression of tumor suppressor protein Rb in PMA-stimulated MCF7 cells (immunofluorescence, Fn/c); assay type: cell-based, human; conditions: 50 μM 24 hr, PMA 60 hr, p=0.0007
Description: as §3

MDA-MB-231 xenograft = experiment: Balb/c-nude MDA-MB-231 xenograft breast cancer model: tumor volume and cancer stem cell proportion; assay type: in vivo, balb/c-nude mice
Description: A Balb/c-nude MDA-MB-231 xenograft breast cancer model was utilized to determine the effect of the importinib peptides alone and in combination with the chemotherapeutic, docetaxel in comparison to a randomized peptide control.
Five week old balb/c-nude mice (n=5 per test compound) were injected with MDA-MB-231 human breast carcinoma cell suspensions (2×10^6 cells in 25 μL PBS mixed with 25 μL of BD Matrigel Matrix) subcutaneously into the right mammary gland. Test compounds in a saline vehicle [4 mg/kg docetaxel; 8 mg/kg, 40 mg/kg and 60 mg/kg importinib4759 or importinib4759_O1 (synthesized in accordance with Example 1); 4 mg/kg docetaxel with 8 mg/kg importinib4759 or importinib4759_O1; 4 mg/kg docetaxel with 40 mg/kg importinib4759 or importinib4759_O1; 4 mg/kg docetaxel with 60 mg/kg importinib4759 or importinib4759_O1; or randomized peptide control] were injected intraperitoneally. Tumor volume was assessed using calipers daily over a period of five weeks following treatment. Animals were sacrificed after the five week period. Tumor grafts were removed using resection and processed into single cell suspensions. The percentage of cancer stem cells was determined using FACS analysis. FACS staining was performed using anti-human CD44-APC, anti-human CD24-PE, Hoechst, and anti-human EpCAM antibody cocktails. Data was collected from BD FACSLSR-II flow cytometer. Treestar FlowJo was used for data analysis. Significance was determined using a one-way ANOVA or Mann-Whitney T-test.

T1 sequence (Q04759 whole entry): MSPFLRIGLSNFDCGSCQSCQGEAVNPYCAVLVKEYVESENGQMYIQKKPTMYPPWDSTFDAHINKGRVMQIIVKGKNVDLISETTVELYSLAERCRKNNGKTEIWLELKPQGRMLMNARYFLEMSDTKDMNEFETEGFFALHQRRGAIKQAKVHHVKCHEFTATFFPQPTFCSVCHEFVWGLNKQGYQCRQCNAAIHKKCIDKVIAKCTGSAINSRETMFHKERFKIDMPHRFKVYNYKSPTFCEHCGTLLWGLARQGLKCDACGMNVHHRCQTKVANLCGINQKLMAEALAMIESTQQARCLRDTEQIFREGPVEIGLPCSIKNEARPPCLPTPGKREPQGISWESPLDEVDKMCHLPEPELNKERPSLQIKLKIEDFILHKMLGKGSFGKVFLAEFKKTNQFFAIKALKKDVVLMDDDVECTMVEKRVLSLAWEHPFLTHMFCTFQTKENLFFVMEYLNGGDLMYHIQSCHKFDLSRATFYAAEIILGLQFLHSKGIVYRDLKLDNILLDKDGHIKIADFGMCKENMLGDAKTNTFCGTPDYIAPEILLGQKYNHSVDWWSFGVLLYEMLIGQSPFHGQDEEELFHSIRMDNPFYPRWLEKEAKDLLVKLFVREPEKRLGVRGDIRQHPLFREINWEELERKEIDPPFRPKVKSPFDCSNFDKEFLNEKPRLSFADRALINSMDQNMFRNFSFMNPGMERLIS

blocking of nuclear PKC-θ (nuclear translocation) (PKC-θ; 50 μM peptide 24 hr, then PMA 0.65 ng/mL 60 hr, N-myristoylated peptides, p<0.0001 relative to control): capable of blocking nuclear PKC-θ
effect on distribution of PKC-α (PKC-α): had no effect
effect on distribution of PKC-β2 (PKC-β2): had no effect
effect on distribution of Importin 8 (Importin 8): had no effect
Substance: RRKRIDWPPRRKPK-OH (Myristoyl-RRKRIDWPPRRKPK-OH; SMILES CCCCCCCCCCCCCC(=O)N[C@@H](CCCNC(=N)N)C(=O)N[C@@H](CCCNC(=N)N)C(=O)N[C@@H](CCCCN)C(=O)N[C@@H](CCCNC(=N)N)C(=O)N[C@H](C(=O)N[C@@H](CC(=O)O)C(=O)N[C@@H](Cc1c[nH]c2ccccc12)C(=O)N1CCC[C@H]1C(=O)N1CCC[C@H]1C(=O)N[C@@H](CCCNC(=N)N)C(=O)N[C@@H](CCCNC(=N)N)C(=O)N[C@@H](CCCCN)C(=O)N1CCC[C@H]1C(=O)N[C@@H](CCCCN)C(=O)O)[C@@H](C)CC) [Importinib4759_O1, tested N-myristoylated]
capacity to prevent PKC-θ nuclear translocation compared to importinib4759 (PKC-θ; 50 μM, PMA stimulated): significantly higher capacity to prevent PKC-θ nuclear translocation compared to importinib4759
effect on distribution of Importin α (Importin α): had no effect
cancer stem cell (CD44hiCD24lo) formation (MCF7 cells): inhibited
effect on live cell population of MDA-MB-231 cells (MDA-MB-231 cells): cleared virtually all MDA-MB-231 cells
effect on live cell population of MCF7 epithelial cells (MCF7 epithelial cells): minimal effect
nuclear expression of NF-κB p65 (NF-κB p65): significantly inhibited nuclear expression
nuclear expression of p53 (p53): significantly inhibited nuclear expression
expression of tumor suppressor protein Rb (Rb): enhanced expression
cancer stem cell (CD44highCD24low) population in tumor grafts (MDA-MB-231 xenograft; FACS of resected tumor grafts after five weeks): significantly abrogated the cancer stem cell population
tumor volume in comparison to the control or docetaxel treatment alone (MDA-MB-231 xenograft; intraperitoneal, peptide 8, 40 and 60 mg/kg, docetaxel 4 mg/kg, five weeks): abrogated tumor volume
tumor volume over time (MDA-MB-231 xenograft; intraperitoneal, peptide 8, 40 and 60 mg/kg, docetaxel 4 mg/kg, five weeks, n=5): reduced tumor volume over time
